Assay results as given in patent US10758609B2, “Cross-reactive T-cell epitopes of HIV, SIV, and FIV for vaccines in humans and cats” (priority 2015, dated 2020).

Legend:
[1] = system: CD4^+ T cells from HIV^+ subjects; settings: HIV-1 peptides; HIV+ human subjects
Procedure: The overlapping peptide pools of FIV and HIV-1 structural and enzyme proteins were used to stimulate the […] (PBMC) and the T cells from HIV^+ subjects as previously described for epitope mapping of HIV-1 and FIV p24 and reverse transcriptase (RT) (Sanou et al., 2013; Roff et al., 2015). The individual peptides in those peptide pools with positive responses to either interferon-γ (IFNγ) production and/or T-cell proliferation were determined with IFNγ ELISpot analysis and CFSE-based CD3^+CD4^+ and CD3^+CD8^+ T-cell proliferation analyses followed by the FACS-based intracellular staining (ICS) for cytolysin (perforin) and cytotoxin (granzyme A [GrzA] and GrzB) (Sanou et al., 2013; Roff et al., 2015). Besides viral p24 and RT proteins, the identical approach was used to identify anti-HIV/FIV T-cell epitopes on viral matrix (MA), nucleocapsid (NC), protease (PR), RNAase, integrase (IN), surface envelope (SU Env), and transmembrane envelope (TM Env) (FIG. 12).
Since our goal is to develop HIV vaccine for human use, the HIV peptides (Table 10) counterpart of the cross-reactive FIV peptides shown in Table 9 were tested with PBMC and T cells from HIV^+ subjects. The immune functions analyzed were human IFNγ production by ELISpot, cytolysin/cytotoxin production by ICS, and CFSE-based proliferation of CD3^+CD4^+ and CD3^+CD8^+ T cells from HIV^+ subjects (Table 10, the first set of results). In addition, the Los Alamos National Laboratories (LANL) database was used to identify the HLA allele(s) of the HIV epitope sequence with CTL activity that can exist within the sequence of the conserved counterpart HIV peptide (Table 9, LANL CTL). The bold HLA class-I supertypes and the bold 2-digit alleles are those on the “Optimal CD8^+ CTL Epitopes” list and those without bold are alleles for potential CTL epitope. […] The HLA class II such as HLA-DRB1 has yet to be fully classified into supertypes, and therefore the 4-digit resolution nomenclatures for the HLA-DRB1 alleles are shown.
The counterpart HIV-1 peptides of the FIV peptides were also tested for immunogenicity using PBMC and T cells from HIV^+ human subjects. […] The HRT7-1 and HRT7-2 were also tested with cells from HIV^+ subjects on ART. The threshold for positive IFNγ ELISpot response is ≥75 spot-forming units (SFU) per 10^6 PBMC. The threshold for CFSE-based CD4^+ (CD4^+ T) and CD8^+ (CD8^+ T) T-cell proliferation is ≥2% CD4^+ T-cell CFSE^low or CD8^+ T-cell CFSE^low. The threshold of intracellular cytokine staining (ICS) of FACS-based cytolysin (perforin) and cytotoxins (granzymes A and B) in CD4^+ T cells (CyCD4) and CD8^+ T cells (CyCD8) is ≥0.2%. […] The nine HIV-1 peptides in black are the counterpart FIV peptides used in the current MAP vaccine trial, whereas the 13 peptides in blue were not.

[2] = system: PBMC from FIV-vaccinated cats; experiment: Feline IL2 ELISpot of PBMC from vaccinated cats; type: cell-based, cat
Procedure: (§1) IFNγ and IL2 ELISpot analyses were performed using feline IFNγ ELISpot and feline IL2 ELISpot kits (R&D Systems, Cat# SEL764 and SEL1890) as described. The threshold is defined as ≥50 spot forming units (SFU) per 1×10^6 PBMC when counted with MVS ELISpot Reader (MVS Pacific, LLC). Each result is an average of the duplicate samples after subtraction of the average value of the media controls.
(§2) Concurrently, the overlapping peptide pools of FIV structural/enzyme proteins were used to stimulate PBMC and T cells from FIV-vaccinated cats. These cats were vaccinated with prototype dual-subtype FIV vaccine which was the prototype to our commercial FIV vaccine (Coleman et al., 2014). The feline assays (Example 1) equivalent to those of human assays (Sanou et al., 2013; Roff et al., 2015) were used except for ICS analysis. In place of ICS for cytolysin/cytotoxins, IL2 ELISpot analysis was performed. […] The results for FIV-vaccinated cats included IFNγ and IL2 productions and CD3^+CD4+ and CD3^+CD8^+ T-cell proliferation (Table 9, the second set of results).
(§3) The feline IFNγ and L2 ELISpot analyses of PBMC to FIV MAPs and peptides were performed as previously described (Abbott et al. (2012)) using feline IFNγ modular kit (R&D Systems, Minneapolis, Minn.) and feline IL2 modular kit (R&D Systems). All results shown in the figures (FIGS. 8A-1, 8B-1, 8A-2, 8B-2, 8A-3, 8B-3) are after subtracting the average value of the results from all control cats.
(§4) The second parameter evaluated was the ability of the peripheral blood mononuclear cells (PBMC) from vaccinated and control cats to produce IL2 and interferon-γ (IFNγ) proteins in responses to FIV MAPs and peptides (FIGS. 8A-1, 8A-2, 8A-3, 8B-1, 8B-2, 8B-3) using feline IL2 and IFNγ ELISpot assays (Aranyos et al. (2016); Abbott et al. (2012)). IL2 enhances the proliferation of FIV-specific CD4^+ T cells and CD8^+ T cells. IFNγ is known enhance the FIV-specific CTL activities in vaccinated cats (Abbas et al. (2015)).

[3] = system: feline CD3^+CD4^+ T cells; experiment: CFSE-based feline CD3+CD4+ T-cell proliferation; parameters: species or system cat; settings: FIV-vaccinated cats; for CDC4^+ T (T-cell proliferation), frequency of responders: FIV peptides; for CD4, frequency of responders: FIV epitope peptide
Procedure: (§5) Carboxyfluorescein diacetate succinimide ester (CFSE)-proliferation was performed according to the manufacturer's protocol (Invitrogen, Grand Island, N.Y.) and processed using a previously described modification. The modification consisted of 2.5×10^5 CFSE-labeled feline PBMC stimulated for 5 days (37° C., 5% CO2) with 4 μg/mL peptide in culture media (RPMI medium 25 µg/mL gentamycin, and 10% heat-inactivated fetal bovine serum (FBS)). Peptide pools consisted of 3-5 overlapping peptides of 4 μg/mL each. The antibodies used for flow cytometry based proliferation analysis consisted of murine anti-feline (Fe) CD3 monoclonal antibody (MAb clone kindly provided by Drs. Yorihiro Nishimura and Takayuki Miyazawa; described in [32]) combined with secondary goat anti-mouse IgG3-APC/CY7 MAb (SouthernBiotech, Birmingham, Ala.; Cat#1100-19); and murine anti-FeCD4-PE MAb (SouthernBiotech, Cat#8130-09); and murine anti-FeCD8 MAb (MAb clone kindly provided by Dr. Nazareth Gengozian, described in [33]) with secondary goat anti-mouse IgG2a-PE/CY7 (Southern Biotech, Cat#1080-17). The murine anti-B220-APC MAb for detecting feline B cells (SouthernBiotech, Cat#1665-11) and previously described MAbs for CFSE were used for FACS phenotyping. Both FACS phenotyping and CFSE-proliferation analyses were performed with BD LSRII and FACSDiva™ Software (BD Biosciences, San Jose, Calif.). The final value for each sample was derived after subtraction of the average value of the media controls using a positive threshold of ≥1 CFSE^low.
as §2
(§6) Carboxyfluorescein diacetate succinimide ester (CFSE)-proliferation analysis was according to the manufacturer's protocol (Invitrogen-Fisher, Carlsbad, Calif.) and processed as previously described (Roff et al. (2015)) using the following modifications: anti-feline CD3 antibody ((clone NZM1), a generous gift from T. Miyazawa (Univ. of Tokyo, Japan)) in combination with APC-conjugated anti-mouse IgG3 (Southern Biotech, Birmingham, Ala.), PE-conjugated anti-feline CD4 antibody (Southern Biotech), and anti-feline CD8 antibody (gift from N. Gengozian, University of Tennessee (Gengozian et al. (1997))) in combination with PE/Cy7-conjugated anti-mouse IgG2b (Southern Biotech) to detect the proliferation of feline CD3^+CD4+ T cells and feline […]. All results shown in the figures (FIGS. 7A-1, 7B-1, 7A-2, 7B-2, 7A-3, 7B-3) are after subtracting the average value of each results from all control cats. The threshold of CFSE proliferation is ≥0.5 CFSE^low. […]

[4] = system: feline CD3^+CD8^+ T cells; experiment: CFSE-based feline CD3+CD8+ T-cell proliferation; parameters: species or system cat; settings: for CD8^+ T (T-cell proliferation), frequency of responders: FIV peptides; for CD8^+ T (T-cell proliferation), frequency of responders / CD8, frequency of responders: FIV-vaccinated cats; for % CD8+ T-cell CFSE^low over % CD4+ T-cell CFSE^low ratio (CD8/CD4 response ratio): cats of Group 1, MAP Vaccine Trial 1 (FIG. 3); for CD8, frequency of responders: FIV epitope peptide
Procedure: as §5, §2, §6

[5] = system: PBMC from FIV-vaccinated cats; experiment: Feline IFNγ ELISpot of PBMC from vaccinated cats; type: cell-based, cat; settings: for IFNγ production: cats of Group 1, MAP Vaccine Trial 1 (FIG. 3)
Procedure: as §1, §2, §3, §4

[6] = FIV peptides, FIV-vaccinated cats (prototype dual-subtype vaccine)
[7] = FIV epitope peptide, FIV-vaccinated cats

CC[C@H](C)[C@H](N)C(=O)N1CCC[C@H]1C(=O)N[C@H](C(=O)NCC(=O)N[C@@H](CCC(=O)O)C(=O)N[C@H](C(=O)N[C@@H](Cc1ccc(O)cc1)C(=O)N[C@@H](CCCCN)C(=O)N[C@@H](CCCNC(=N)N)C(=O)N[C@@H](Cc1c[nH]c2ccccc12)C(=O)N[C@H](C(=O)N[C@H](C(=O)N[C@@H](CC(C)C)C(=O)NCC(=O)O)[C@@H](C)CC)[C@@H](C)CC)[C@@H](C)CC)C(C)C [Hp9-3(10-3)]
CyCD4 (cytolysin and cytotoxin production of CD4+ T cells), frequency of responders [1]: + (12.5%-25% (+))

AEVKLYLKQSLSIANA [Fp14-3/4, overlapping peptide of MAP3]
IL2, frequency of responders ([2]; FIV peptides): ++++ (>54% (++++)) | CDC4^+ T (T-cell proliferation), frequency of responders [3]: +++ (40.1%-54% (+++)) | CD8^+ T (T-cell proliferation), frequency of responders [4]: +++ (40.1%-54% (+++)) | % CD8+ T-cell CFSE^low over % CD4+ T-cell CFSE^low ratio (CD8/CD4 response ratio) [4]: 4.8 | IFNγ, frequency of responders [5, 6]: +++ (40.1%-54% (+++)) | IFNγ production [5]: 96 SFU/10^6 PBMC

GRRYVWCSLPQGWVLSPLIY [FRT7-1/2, overlapping peptide of MAP5]
IL2, frequency of responders ([2]; FIV peptides): +++ (40.1%-54% (+++)) | CDC4^+ T (T-cell proliferation), frequency of responders [3]: +++ (40.1%-54% (+++)) | CD8^+ T (T-cell proliferation), frequency of responders [4]: +++ (40.1%-54% (+++)) | % CD8+ T-cell CFSE^low over % CD4+ T-cell CFSE^low ratio (CD8/CD4 response ratio) [4]: 11 | IFNγ, frequency of responders [5, 6]: +++ (40.1%-54% (+++)) | IFNγ production [5]: no IFNγ response

GSSKEIDMAIVTLKV [FMA2]
IL2, frequency of responders ([2]; FIV epitope peptide): ++ (26%-40% (++)) | IL2, frequency of responders ([2]; FIV peptides): ++ (25.1%-40% (++)) | CD4, frequency of responders [3]: ++++ (>54% (++++)) | CDC4^+ T (T-cell proliferation), frequency of responders [3]: ++++ (>54% (++++)) | CD8, frequency of responders [4]: ++++ (>54% (++++)) | CD8^+ T (T-cell proliferation), frequency of responders [4]: ++++ (>54% (++++)) | IFNγ, frequency of responders [5, 7]: ++ (26%-40% (++)) | IFNγ, frequency of responders [5, 6]: ++ (25.1%-40% (++))

KFLLDTGADITILN [FPR2]
IL2, frequency of responders ([2]; FIV epitope peptide): ++++ (>54% (++++)) | IL2, frequency of responders ([2]; FIV peptides): ++++ (>54% (++++)) | CD4, frequency of responders [3]: ++++ (>54% (++++)) | CDC4^+ T (T-cell proliferation), frequency of responders [3]: ++++ (>54% (++++)) | CD8, frequency of responders [4]: ++++ (>54% (++++)) | CD8^+ T (T-cell proliferation), frequency of responders [4]: ++++ (>54% (++++)) | IFNγ, frequency of responders [5, 7]: ++++ (>54% (++++)) | IFNγ, frequency of responders [5, 6]: ++++ (>54% (++++))

NVAVGVGGKSKKF [FMA1]
IL2, frequency of responders ([2]; FIV peptides): — (0%-1.4%(—)) | CD4, frequency of responders [3]: +++ (41%-54% (+++)) | CDC4^+ T (T-cell proliferation), frequency of responders [3]: +++ (40.1%-54% (+++)) | CD8, frequency of responders [4]: ++++ (>54% (++++)) | CD8^+ T (T-cell proliferation), frequency of responders [4]: ++++ (>54% (++++)) | IFNγ, frequency of responders [5, 7]: ++++ (>54% (++++)) | IFNγ, frequency of responders [5, 6]: ++++ (>54% (++++))

TLEKRPEILIFVNG [FPR1]
IL2, frequency of responders ([2]; FIV epitope peptide): — (0%-1.4% (—)) | IL2, frequency of responders ([2]; FIV peptides): — (0%-1.4%(—)) | CD4, frequency of responders [3]: ++++ (>54% (++++)) | CDC4^+ T (T-cell proliferation), frequency of responders [3]: ++++ (>54% (++++)) | CD8, frequency of responders [4]: ++++ (>54% (++++)) | CD8^+ T (T-cell proliferation), frequency of responders [4]: ++++ (>54% (++++)) | IFNγ, frequency of responders [5, 7]: — (0%-1.4% (—)) | IFNγ, frequency of responders [5, 6]: — (0%-1.4%(—))

WRMLIDFRVLNKLTDKGA [FRT3-4/5]
IL2, frequency of responders ([2]; FIV peptides): +++ (40.1%-54% (+++)) | CDC4^+ T (T-cell proliferation), frequency of responders [3]: — (0%-1.4%(—)) | CD8^+ T (T-cell proliferation), frequency of responders [4]: — (0%-1.4%(—)) | IFNγ, frequency of responders [5, 6]: — (0%-1.4%(—))
